The values below come from patent publication US6875760B2 (Novo Nordisk A/S, priority 1999, dated 2005).

This assay addresses T1, human glucagon receptor (Homo sapiens, UniProt P47871).
T1 construct: expressed in transfected cells; host or cells: BHK (baby hamster kidney) cells
Briefly: Glucagon Binding Assay (III). To be noted: BHK cell membranes, WGA SPA beads, 125I-glucagon; read-out: Glu Bd Assay (III) IC50. In outline: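 Membranes from BHK cells transfected with the human receptor, prepared at 4 °C, were used in a WGA-bead scintillation proximity binding format. Plates were shaken for 4 hours, left to settle 8–48 hours and then counted. Non-specific binding was defined with 500 nM glucagon.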

A word on the IC50: it is the midpoint of a concentration-inhibition curve.

T1 sequence (P47871 26-477): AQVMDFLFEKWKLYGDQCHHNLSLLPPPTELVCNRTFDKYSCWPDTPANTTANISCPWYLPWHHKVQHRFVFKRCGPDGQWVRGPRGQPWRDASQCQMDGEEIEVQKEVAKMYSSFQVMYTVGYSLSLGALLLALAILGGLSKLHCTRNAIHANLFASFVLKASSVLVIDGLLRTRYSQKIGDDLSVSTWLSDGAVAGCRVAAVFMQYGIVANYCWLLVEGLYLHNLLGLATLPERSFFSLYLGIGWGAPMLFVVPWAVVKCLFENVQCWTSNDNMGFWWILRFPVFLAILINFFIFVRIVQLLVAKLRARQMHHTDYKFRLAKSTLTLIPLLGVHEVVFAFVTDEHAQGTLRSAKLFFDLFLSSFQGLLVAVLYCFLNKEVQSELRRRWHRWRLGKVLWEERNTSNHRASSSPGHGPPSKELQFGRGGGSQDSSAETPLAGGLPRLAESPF

In the case of `COc1cc(NC(=O)N(Cc2ccc(C(=O)Nc3nn[nH]n3)cc2)c2ccc(C3CCCCC3)cc2)cc(C(F)(F)F)c1` [Example 319, 4-[1-(4-Cyclohexylphenyl)-3-(3-methoxy-5-trifluoromethylphenyl)ureidomethyl]-N-(2H-tetrazol-5-yl)benzamide], the IC50 came out at 18 nM.

With `CS(=O)(=O)c1ccc(NC(=O)N(Cc2ccc(C(=O)Nc3nn[nH]n3)cc2)c2ccc(C3CCCCC3)cc2)s1` [Example 320, 4-[1-(4-Cyclohexylphenyl)-3-(5-methylsulfonylthiophen-2-yl)ureidomethyl]-N-(2H-tetrazol-5-yl)benzamide], the IC50 is 28 nM.

In the case of `CS(=O)(=O)c1cc(NC(=O)N(Cc2ccc(C(=O)Nc3nn[nH]n3)cc2)c2ccc(C3CCCCC3)cc2)cc(S(C)(=O)=O)c1` [Example 321, 4-[3-(3,5-Bis(methylsulfonyl)phenyl)-1-(4-cyclohexylphenyl)ureidomethyl]-N-(2H-tetrazol-5-yl)benzamide], the half-inhibitory concentration (IC50) amounted to 960 nM.

Turning to `CN(c1ccccc1)S(=O)(=O)c1cccc(NC(=O)N(Cc2ccc(C(=O)NCCC(=O)O)cc2)c2ccc(C3CCCCC3)cc2)c1` [Example 322, 3-(4-{1-(4-cyclohexylphenyl)-3-[3-(methylphenylsulfamoyl)phenyl]ureidomethyl}benzoylamino)propionic acid], the IC50 turned out to be 41 nM.

Take `O=C(Nc1nn[nH]n1)c1ccc(CN(C(=O)NCCc2ccccc2)c2ccc(C3CCCCC3)cc2)cc1` [Example 323, 4-[1-(4-Cyclohexylphenyl)-3-phenethylureidomethyl]-N-(2H-tetrazol-5-yl)benzamide]: the 50% inhibitory concentration (IC50) was found to be 102 nM.

In the case of `CC(C)(C)C1CCC(N(Cc2ccc(C(=O)Nc3nn[nH]n3)cc2)C(=O)NCCc2ccccc2)CC1` (stereo not shown) [Example 324, 4-[1-(4-tert-Butylcyclohexyl)-3-phenethylureidomethyl]-N-(2H-tetrazol-5-yl)benzamide], the 50% inhibitory concentration (IC50) came to 277 nM.

In the case of `O=C(Nc1nn[nH]n1)c1ccc(CN(C(=O)Nc2ccc(Cl)c(Cl)c2)c2ccc(C3=CCCCC3)cc2)cc1` [Example 325, 4-[1-(4-Cyclohex-1-enylphenyl)-3-(3,4-dichlorophenyl)ureidomethyl]-N-(2H-tetrazol-5-yl)benzamide], the IC50 turned out to be 25 nM.

Consider `O=C(Nc1nn[nH]n1)c1ccc(CN(C(=O)Nc2cccc(C(F)(F)F)c2)c2ccc(C3=CCCCC3)cc2)cc1` [Example 326, 4-[1-(4-Cyclohex-1-enylphenyl)-3-(3-trifluoromethylphenyl)ureidomethyl]-N-(2H-tetrazol-5-yl)benzamide], for which the IC50 worked out at 21 nM.

`Cc1ccc(NC(=O)N(Cc2ccc(C(=O)Nc3nn[nH]n3)cc2)c2ccc(C3CCCCC3)cc2)cc1Cl` [Example 327, 4-[3-(3-Chloro-4-methylphenyl)-1-(4-cyclohexylphenyl)ureidomethyl]-N-(2H-tetrazol-5-yl)benzamide]: the half-inhibitory concentration (IC50) came to 15 nM.

`O=C(Nc1nn[nH]n1)c1ccc(CN(C(=O)Nc2ccc(F)c(C(F)(F)F)c2)c2ccc(C3=CCCCC3)cc2)cc1` [Example 328, 4-[1-(4-Cyclohex-1-enylphenyl)-3-(4-fluoro-3-trifluoromethylphenyl)ureidomethyl]-N-(2H-tetrazol-5-yl)benzamide]: the IC50 was found to be 14 nM.

Turning to `CC(C)(C)c1ccc(N(Cc2ccc(C(=O)Nc3nn[nH]n3)cc2)C(=O)Nc2ccccc2)cc1` [Example 329], the half-maximal inhibitory concentration (IC50) was found to be 278 nM.

`CC(C)(C)c1ccc(N(Cc2ccc(C(=O)Nc3nn[nH]n3)cc2)C(=O)Nc2cc(C(F)(F)F)cc(C(F)(F)F)c2)cc1` [Example 330, 4-[3-(3,5-Bis(trifluoromethyl)phenyl)-1-(4-tert-butylphenyl)ureidomethyl]-N-(2H-tetrazol-5-yl)benzamide]: the IC50 was 44 nM.

On to `CC(C)(C)c1ccc(N(Cc2ccc(C(=O)Nc3nn[nH]n3)cc2)C(=O)Nc2ccc(Cl)c(C(F)(F)F)c2)cc1` [Example 331, 4-[1-(4-tert-Butylphenyl)-3-(4-chloro-3-trifluoromethylphenyl)ureidomethyl]-N-(2H-tetrazol-5-yl)benzamide], for which the IC50 came to 30 nM.
